Inconclusive results are not listed. The source made the active and inactive calls.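 Rule for the calls: active = Green signal of the normal strain falls at least twice as much as red signal of the resistant mutant, with overall culture growth loss under a set limit; inconclusive = no clear call, values can overlap the other calls; inactive = the rest.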
System: E. coli WT ribosome GFP fluorescence, mixed culture, 24 h
Assay: wild-type E. coli growth inhibition versus h38 humanized strain – h38 mutant RFP, wild-type GFP, cherry-pick, dose response (AID 977622)
[1] = E. coli mixed culture, 24 h, measured here: total growth OD600

## CCOC(=O)C(CC)Sc1cc(C)nc2ccc(OC)cc12 (stereo not drawn)
[1]
  AC50: > 100 µM

## Cc1cc(C)c(OCCNC(=O)c2ccccc2Sc2ccccc2C#N)c(C)c1
  AC50: > 100 µM (inactive)

## CCCCNC(=O)C[C@@H]1C[C@@]2(C(=O)OC)CCCCC=C2N(Cc2ccccc2)C1=O
  AC50: > 100 µM (inactive)
[1]
  AC50: > 100 µM

## O=C(C[C@H]1CC[C@@H]2[C@H](COC[C@@H](O)CN2C(=O)Nc2cc(Cl)cc(Cl)c2)O1)N1CCOCC1
  AC50: > 100 µM (inactive)

## O=C(NCc1cccnc1)C1CCN(S(=O)(=O)c2cc([N+](=O)[O-])ccc2Cl)CC1
  AC50: > 100 µM (inactive)

## CCOc1ccc(-c2nc(-c3cccs3)c(CC(=O)O)s2)cc1OC
[1]
  AC50: > 100 µM

## CCN(CC)CCN(C(=O)c1ccccc1OC)c1nc2ccc(F)cc2s1
  AC50: > 100 µM (inactive)
[1]
  AC50: > 100 µM

## CCN(CC)S(=O)(=O)c1ccc(O)c(C(=O)OCC(=O)NC23CC4CC(CC(C4)C2)C3)c1
[1]
  AC50: > 100 µM

## CCN(c1ccccc1)S(=O)(=O)c1ccc(Cl)c(NC(=O)CSc2n[nH]c(N)n2)c1
  AC50: > 100 µM (inactive)
[1]
  AC50: > 100 µM

## O=S1(=O)N[C@H](Cc2ccccc2)COc2cc(N3CCSCC3)ccc21
[1]
  AC50: > 100 µM

## CCOC(=O)c1sc(NC(=O)CN2CCN(c3ccccc3)CC2)nc1C
  AC50: > 100 µM (inactive)

## Cc1ccc(C(=O)c2coc3cc([N+](=O)[O-])c(O)c([N+](=O)[O-])c23)cc1
  AC50: > 100 µM (inactive)
[1]
  AC50: 21.5 µM

## Brc1ccc(-n2cnc(-c3ccccc3)c2)cc1
  AC50: > 100 µM (inactive)

## COc1ccc2oc(C(=O)NCc3ccco3)c(C)c2c1
  AC50: > 100 µM (inactive)

## CC(=O)Nc1cccc2c1Cc1cc([N+](=O)[O-])ccc1-2
  AC50: > 100 µM (inactive)

## Cc1ccc(S(=O)(=O)N2CC[C@H]3[C@H](CO)Nc4ccc(Br)cc4[C@H]32)cc1
  AC50: > 100 µM (inactive)
[1]
  AC50: 29.1 µM

## COC(=O)C[C@H]1C[C@@H]2c3cc(NC(=O)Nc4ccc(C(F)(F)F)cc4)ccc3O[C@@H]2[C@H](CO)O1
  AC50: > 100 µM (inactive)
[1]
  AC50: > 100 µM

## Cc1cccc(N2CCN(Cc3nc(-c4ccc(F)cc4F)oc3C)CC2)n1
[1]
  AC50: > 100 µM

## O=C1NC(CCc2ccccc2)C(=O)N1Cc1cccc2ccccc12 (stereo not drawn)
  AC50: > 100 µM (inactive)
[1]
  AC50: 51.5 µM

## S=C1SCN(Cc2cccnc2)CN1Cc1ccccc1
  AC50: > 100 µM (inactive)

## COc1ccc(OCC(=O)N2c3ccccc3CC2C)c([N+](=O)[O-])c1 (stereo not drawn)
  AC50: > 100 µM (inactive)
[1]
  AC50: > 100 µM

## COc1ccc(CN2CCC3CC2c2cc(Cl)ccc23)cc1 (stereo not drawn)
[1]
  AC50: > 100 µM

## Cc1ccccc1-n1ncc2c1CC(C)(C)CC2NC(=O)CCN1Cc2ccccc2C1=O (stereo not drawn)
  AC50: > 100 µM (inactive)
[1]
  AC50: > 100 µM

## O=C(O)c1cc(-c2cccs2)nn1-c1cccc(Cl)c1
  AC50: > 100 µM (inactive)

## Nc1nn(-c2ccccc2)c2ccc([N+](=O)[O-])cc12
  AC50: > 100 µM (inactive)

## C[C@H]1CN([C@@H](C)CO)C(=O)CCCn2nncc2CO[C@@H]1CN(C)Cc1ccccc1C(F)(F)F
[1]
  AC50: > 100 µM

## O=C(Cc1cccc(NC(=O)C2CCN(C(=O)C3CCCCC3)CC2)c1)Nc1cccc(C(=O)N2CCCC2)c1
  AC50: > 100 µM (inactive)
[1]
  AC50: > 100 µM

## Cc1onc(-c2ccccc2Cl)c1C(=O)OCC(=O)c1ccccc1
[1]
  AC50: > 100 µM

## Nc1ccccc1Nc1ccc([N+](=O)[O-])cc1[N+](=O)[O-]
  AC50: > 100 µM (inactive)

## Cc1cc(C(=O)NCCC2=CCCCC2)ccc1[N+](=O)[O-]
  AC50: > 100 µM (inactive)
[1]
  AC50: > 100 µM

## COc1ccccc1Cn1c(=S)[nH]c2ccccc2c1=O
  AC50: > 100 µM (inactive)
[1]
  AC50: 42.1 µM

## COc1cc2nc(Nc3ccc(F)cc3)nc(N)c2cc1OC
  AC50: > 100 µM (inactive)

## COc1cc(C(N)=O)cc(Br)c1OCc1ccccc1
  AC50: > 100 µM (inactive)

## COCc1c(C#N)c(NCCc2ccc(F)cc2)nc(C)c1[N+](=O)[O-]
  AC50: > 100 µM (inactive)

## Cc1nc(-c2ccc([N+](=O)[O-])cc2)c(-c2ccccc2)o1
  AC50: > 100 µM (inactive)
[1]
  AC50: > 100 µM

Source: PubChem BioAssay AID977622 (Broad Institute, 2014)
